{
  "source": "ChEMBL document CHEMBL3045625",
  "about": "“Antifeedant properties and chemotaxonomic implications of sesquiterpene lactones and syringin from Rhaponticum pulchrum” (2006)",
  "data": [
    {"test_system": "Trogoderma granarium", "experiment": "Antifeedant activity against Trogoderma granarium (khapra beetle) in compound treated wheat wafer disks assessed as antifeedant index by no-choice/two-choice assay", "type": "functional", "values": [
      {"smiles": "COc1cc(/C=C/CO)cc(OC)c1O[C@@H]1O[C@H](CO)[C@@H](O)[C@H](O)[C@H]1O", "note": "[SYRINGIN]", "Activity": 61.7},
      {"smiles": "C=C(C)C(=O)O[C@H]1CC(=C)[C@@H]2C[C@H](O)C(=C)[C@@H]2[C@H]2OC(=O)C(=C)[C@@H]21", "note": "[AGUERIN B]", "Activity": 116.5},
      {"smiles": "C=C(CO)C(=O)O[C@H]1CC(=C)[C@@H]2C[C@H](O)[C@]3(CO3)[C@@H]2[C@H]2OC(=O)C(=C)[C@@H]21", "note": "[JANERIN]", "Activity": 95},
      {"smiles": "C=C(CO)C(=O)O[C@H]1CC(=C)[C@@H]2C[C@H](O)C(=C)[C@@H]2[C@H]2OC(=O)C(=C)[C@@H]21", "note": "[CYNAROPICRIN]", "Activity": 49.5}
    ]},
    {"test_system": "Sitophilus granarius", "experiment": "Antifeedant activity against Sitophilus granarius (granary weevil) in compound treated wheat wafer disks assessed as antifeedant index by no-choice/two-choice assay", "type": "functional", "values": [
      {"smiles": "COc1cc(/C=C/CO)cc(OC)c1O[C@@H]1O[C@H](CO)[C@@H](O)[C@H](O)[C@H]1O", "note": "[SYRINGIN]", "Activity": 134.4},
      {"smiles": "C=C(C)C(=O)O[C@H]1CC(=C)[C@@H]2C[C@H](O)C(=C)[C@@H]2[C@H]2OC(=O)C(=C)[C@@H]21", "note": "[AGUERIN B]", "Activity": 94.7},
      {"smiles": "C=C(CO)C(=O)O[C@H]1CC(=C)[C@@H]2C[C@H](O)[C@]3(CO3)[C@@H]2[C@H]2OC(=O)C(=C)[C@@H]21", "note": "[JANERIN]", "Activity": 69},
      {"smiles": "C=C(CO)C(=O)O[C@H]1CC(=C)[C@@H]2C[C@H](O)C(=C)[C@@H]2[C@H]2OC(=O)C(=C)[C@@H]21", "note": "[CYNAROPICRIN]", "Activity": 51.6}
    ]},
    {"test_system": "Tribolium confusum", "experiment": "Antifeedant activity against Tribolium confusum (confused flour beetle) in compound treated wheat wafer discs assessed as antifeedant index by no-choice/two-choice assay", "type": "functional", "values": [
      {"smiles": "COc1cc(/C=C/CO)cc(OC)c1O[C@@H]1O[C@H](CO)[C@@H](O)[C@H](O)[C@H]1O", "note": "[SYRINGIN]", "Activity": 125.6},
      {"smiles": "C=C(C)C(=O)O[C@H]1CC(=C)[C@@H]2C[C@H](O)C(=C)[C@@H]2[C@H]2OC(=O)C(=C)[C@@H]21", "note": "[AGUERIN B]", "Activity": 114.5},
      {"smiles": "C=C(CO)C(=O)O[C@H]1CC(=C)[C@@H]2C[C@H](O)[C@]3(CO3)[C@@H]2[C@H]2OC(=O)C(=C)[C@@H]21", "note": "[JANERIN]", "Activity": 104},
      {"smiles": "C=C(CO)C(=O)O[C@H]1CC(=C)[C@@H]2C[C@H](O)C(=C)[C@@H]2[C@H]2OC(=O)C(=C)[C@@H]21", "note": "[CYNAROPICRIN]", "Activity": 98.8}
    ]}
  ]
}
